Data as given in patent US20200197544A1, “JCV IMAGING METHODS AND COMPOSITIONS” (BIOGEN MA Inc., priority 2017, published 2020).
Entries after “also recorded” stand apart in the source; their conditions may differ.

System: JCV-infected human astrocytes
Assay: ^3H-FLT uptake in uninfected and JCV-infected human astrocytes (TK1 activity)
Assay type: cell-based
Details: JCV-infected astrocytes compared to uninfected astrocytes; uptake as a measure of TK1 activity
Procedure: The activity of TK1 in uninfected and JCV-infected human astrocytes was determined by analyzing the cellular uptake of ^3H-FLT, a radiolabeled TK1 substrate.

Cc1cn([C@H]2C[C@H](F)[C@@H](CO)O2)c(=O)[nH]c1=O [^3H-FLT]
^3H-FLT uptake: higher in JCV-infected astrocytes as compared to uninfected astrocytes; also recorded: elevated levels of TK1 activity, as determined by uptake of ^3H-FLT, compared to uninfected cells
